For series [1], the system named is LN229 human glioblastoma cell line. Put plainly: Cell viability (MTT assay), LN229. It is filed as cell-based.
Series [2] relates to LN-229 human glioblastoma cells. The settings on record: 25 and 50 μM, 72- and 96-hour time points.
Series [3] deals with PPAR responsive elements (PPRE). Kind of series: PPAR luciferase assay (PPRE reporter) in HepG2 cells. The class given is cell-based. The settings on record: 25 μM, 24 hrs. How it is done: Aliquots of 50 μM PP1 and FF in DMSO were added to 500 μl to heparinized human blood to a final concentration of 50 μM. Following incubation at 37° C. for the indicated time points, the samples were frozen at −80° C., and later prepared for HPLC-based detection of the compounds. Please note that FF is converted to FA in the presence of human blood. […] Data represent average values with standard deviation (n=3). panel B: Water solubility. FF and PP1, were added to water to a final concentration of 50 mM and sonicated in an ultrasonic bath (Branson 1510 Digital Heated Ultrasonic bath) for one hour at room temperature. The samples were then centrifuged for 10 minutes at 16000×g, and the supernatant filtered through 0.45 μm syringe filter. Water solubilized PP1 and FF were subsequently processed for HPLC analysis (see Methods). Data represent average values with standard deviation (n=3). panel C: Effects of PP compounds on PPAR responsive elements (PPRE). The PPAR transcriptional activity was determined in HepG2 cells by the JsTkpGL3 reporter plasmid, which contains a firefly luciferase gene driven by the PPRE, which consists of three copies of the J site from the apo-AII gene promoter. To normalize for efficiency of transfection the cells were additionally transfected with the pSV40-GLuc (New England Biolabs, Ipswich, Mass.) control plasmid. […] The luciferase activity was detected with Dual-Luciferase reporter assay system (Promega, Madison, Wis.), and the resulting luminescence measured with Synergy 2 microplate reader (BioTek, Winooski, Vt.). Data represent average values with standard deviation (n=6).
PPAR Luciferase Assay—The PPAR transcriptional activity was determined by utilizing the JsTkpGL3 reporter plasmid, which contains a firefly luciferase gene driven by the PPAR responsive element (PPRE), which consists of three copies of the J site from the apo-AII gene promoter. Together with JsTkpGL3 plasmid HepG2 cells were transfected with pSV40-GLuc (New England Biolabs, Ipswich, Mass.) control plasmid expressing Gaussia luciferase under the control of the constitutive SV40 early promoter to normalize for efficiency of transfection. […] The luciferase activity was detected with Dual-Luciferase reporter assay system (Promega, Madison, Wis.), and the resulting luminescence measured with Synergy 2 microplate reader (BioTek, Winooski, Vt.).

Where only a bound is given, the exact number is not on record here.

We go through 26 compounds from patent US20220304957A1, “ANTI-CANCER COMPOSITIONS AND METHODS OF USE” (Board of Supervisors of Louisiana State University and …, priority 2019, published 2022).

`CC(C)(C)OC(=O)NCCCCNC(=O)C(C)(C)Oc1ccc(C(=O)c2ccc(Cl)cc2)cc1` [H28]: the “CV = Cell viability (% of control)” value in series [1] (1 μM, MTT) is given as 92.75±3.59 % of control; in series [1] (5 μM, MTT) it was 65.90±2.82 % of control; in series [1] (10 μM, MTT), 38.31±3.50 % of control.

On to `CN1CCN(C(=O)C(C)(C)Oc2ccc(C(=O)c3ccc(Cl)cc3)cc2)CC1.Cl` [H35], for which the “CV = Cell viability (% of control)” value is 93.64±2.08 % of control in series [1] (1 μM, MTT); 79.34±1.70 % of control in series [1] (5 μM, MTT); 56.26±0.59 % of control in series [1] (10 μM, MTT).

In the case of `CC(C)(Oc1ccc(C(=O)c2ccc(Cl)cc2)cc1)C(=O)N1CCC(N2CCOCC2)CC1` [H37, 2-[4-(4-chlorobenzoyl)phenoxy]-2-methyl-1-[4-(morpholin-4-yl)piperidin-1-yl]propan-1-one], the “CV = Cell viability (% of control)” value in series [1] (1 μM, MTT) is 109.20±5.73 % of control; in series [1] (5 μM, MTT), 75.02±1.42 % of control; in series [1] (10 μM, MTT) it was 47.02±1.23 % of control.

In the case of `CC(C)(Oc1ccc(C(=O)c2ccc(Cl)cc2)cc1)C(=O)N1CCC([NH+]2CCOCC2)CC1.[Cl-]` [H38, 4-(1-{2-[4-(4-chlorobenzoyl)phenoxy]-2-methylpropanoyl}piperidin-4-yl)morpholin-4-iumchloride], the “CV = Cell viability (% of control)” value is on record as 97.97±11.41 % of control in series [1] (1 μM, MTT); 74.89±1.79 % of control in series [1] (5 μM, MTT); 52.00±1.86 % of control in series [1] (10 μM, MTT).

Regarding `CC(C)(Oc1ccc(C(=O)c2ccc(Cl)cc2)cc1)C(=O)N(CCO)CCO` [H46], the “CV = Cell viability (% of control)” value is 103.00±2.98 % of control in series [1] (1 μM, MTT); 86.15±8.50 % of control in series [1] (5 μM, MTT); 51.97±10.27 % of control in series [1] (10 μM, MTT).

`CC(C)OC(=O)C(C)(C)Oc1ccc(C(=O)c2ccccc2)cc1` [HR6]: the “anti-glioblastoma activity / relative potency” value in series [1] (25 μM, 72 hrs, MTT) was “virtually inactive”.

With `CC(C)OC(=O)C(C)(C)Oc1cccc(C(=O)c2ccccc2)c1` [HR7], the “anti-glioblastoma activity / relative potency” value in series [1] (25 μM, 72 hrs, MTT) is “virtually inactive”.

For the compound `CC(C)OC(=O)C(C)(C)Oc1ccc(C(=O)c2ccc(F)cc2)cc1` [HR8], the “anti-glioblastoma activity / relative potency” value in series [1] (25 μM, 72 hrs, MTT) is reported as “virtually the same activity (CV) as FF”.

In the case of `CN(CCO)C(=O)C(C)(C)Oc1ccc(C(=O)c2ccc(F)cc2)cc1` [HR9], the “anti-glioblastoma activity / relative potency” value in series [1] (25 μM, 72 hrs, MTT) was “lower potency than PP1”.

As for `CC(C)(Oc1ccc(C(=O)c2ccc(F)cc2)cc1)C(=O)N1CCCCC1` [HR11], the “anti-glioblastoma activity / relative potency” value in series [1] (25 μM, 72 hrs, MTT) is reported as “slightly higher biological activity”.

With `CC(Oc1ccc(C(=O)c2ccc(Cl)cc2)cc1)C(=O)N1CCC(O)CC1` (stereo not drawn) [HR21], the cell death entry in series [1] (25 μM, 72 hrs) was “about 60%”.

Turning to `CC(Oc1ccc(C(=O)c2ccc(Cl)cc2)cc1)C(=O)N1CCCCC1` (stereo not drawn) [HR22], in series [1] (25 μM, 72 hrs), the cell death result is on record as “about 60%”.

For the compound `CC(C)(Oc1ccc(C(=O)c2ccc(Cl)cc2)cc1)C(=O)NCCCCN` [HR31], in series [1] (25 μM, 72 hrs, MTT), the “anti-glioblastoma activity / relative potency” value is reported as “CV value similar to that of 25 μM FF”.

On to `CN1CCN(C(=O)C(C)(C)Oc2ccc(C(=O)c3ccc(Cl)cc3)cc2)CC1.Cl` [HR35, 4-{2-[4-(4-chlorobenzoyl)phenoxy]-2-methylpropanoyl}6-8,13-20,24-26,28,34,38-1-methylpiperazin-1-ium chloride], for which the “anti-glioblastoma activity / relative potency” value in series [1] (25 μM, 72 hrs, MTT) is “more potent than its free base HR34”.

As a reminder, the viability is a read-out of living cells in per cent, often relative to untreated cells. On to `CC(C)(Oc1ccc(C(=O)c2ccc(Cl)cc2)cc1)C(=O)N1CC[N+](C)(C)CC1` [HR36, 4-{2-[4-(4-chlorobenzoyl)phenoxy]-2-methylpropanoyl}-1,1-dimethylpiperazin-1-ium iodide], for which, in series [1] (Homo sapiens, LN-229, 25 μM, 72 hrs, MTT, read-out: CV = Cell viability (% of control)), the viability at 25 µM stood at 98%.

As for `CC(C)(Oc1ccc(C(=O)c2ccc(Cl)cc2)cc1)C(=O)N1CCC(N2CCOCC2)CC1` [HR37, 2-[4-(4-chlorobenzoyl)phenoxy]-2-methyl-1-[4-(morpholin-4-yl)piperidin-1-yl]propan-1-one], the “anti-glioblastoma activity / relative potency” value in series [1] (25 μM, 72 hrs, MTT) is “more potent than its hydrochloric salt (HR38)”.

Take `CC(C)(Oc1ccc(C(=O)c2ccc(Cl)cc2)cc1)C(=O)NCCO` [HR39]: the “anti-glioblastoma activity / relative potency” value in series [1] (25 μM, 72 hrs, MTT) is recorded as “significantly less potent than PP1”.

Take `CC(C)(Oc1ccc(C(=O)c2ccc(Cl)cc2)cc1)C(=O)N1CCC(O)CC1` [HR41]: in series [1] (25 μM, 72 hrs, MTT), the “anti-glioblastoma activity / relative potency” value was “less potent than PP1”.

In the case of `CC(C)(Oc1ccc(C(=O)c2ccc(Cl)cc2)cc1)C(=O)NCC(O)CO` (stereo not drawn) [HR42], the “anti-glioblastoma activity / relative potency” value in series [1] (25 μM, 72 hrs, MTT) is reported as “almost identical”.

For `CC(C)(Oc1ccc(C(=O)c2ccc(Cl)cc2)cc1)C(=O)NC(CO)CO` [HR43], the “anti-glioblastoma activity / relative potency” value in series [1] (25 μM, 72 hrs, MTT) was “almost identical”.

For `CN(CC(O)CO)C(=O)C(C)(C)Oc1ccc(C(=O)c2ccc(Cl)cc2)cc1` (stereo not drawn) [HR44], the “anti-glioblastoma activity / relative potency” value in series [1] (25 μM, 72 hrs, MTT) is listed as “more potent than the secondary amide HR39”.

As to `CC(C)(Oc1ccc(C(=O)c2ccc(Cl)cc2)cc1)C(=O)NC(CO)(CO)CO` [HR45], the “anti-glioblastoma activity / relative potency” value in series [1] (25 μM, 72 hrs, MTT) was “slightly decreases the potency”.

For the compound `CC(C)(Oc1ccc(C(=O)c2ccc(Cl)cc2)cc1)C(=O)N(CCO)CCO` [HR46], the “anti-glioblastoma activity / relative potency” value in series [1] (25 μM, 72 hrs, MTT) is “almost as potent as PP1”.

Turning to `CC(C)(Oc1ccc(C(=O)c2ccc(Cl)cc2)cc1)C(=O)Nc1ccccc1O` [HR49, 2-(4-(4-chlorobenzoyl)phenoxy)-N-(2-hydroxyphenyl)-2-methylpropanamide], the “anti-glioblastoma activity / relative potency” value in series [1] (25 μM, 72 hrs, MTT) is given as “more potent than HR48”. The IC50 in series [1] (Homo sapiens, LN-229, LN229, read-out: IC50 concentration) was under 10 µM.

Turning to `CN1CCN(C(=O)C(C)(C)Oc2ccc(C(=O)c3ccc(Cl)cc3)cc2)CC1` [PP2, 2-[4-(4-chlorobenzoyl)phenoxy]-2-methyl-1-(4-methylpiperazin-1-yl)propan-1-one], the “cell death” value in series [2] is given as “extensive cell death”. Also, the “effect on PPAR responsive elements (PPRE)” value in series [3] was “attenuate”.

With `CC(C)(Oc1ccc(C(=O)c2ccc(Cl)cc2)cc1)C(=O)N1CCC(N2CCOCC2)CC1` [PP4, 2-[4-(4-chlorobenzoyl)phenoxy]-2-methyl-1-[4-(morpholin-4-yl)piperidin-1-yl]propan-1-one], the “cell death” value in series [2] is reported as “extensive cell death”. The “effect on PPAR responsive elements (PPRE)” value in series [3] is listed as “attenuate”.
